Experimental data as given in patent US20250368647A1, “NITROGEN CONTAINING CONDENSED 2,3-DIHYDROQUINAZOLINONE COMPOUNDS AS NAV1.8 INHIBITORS” (GLAXOSMITHKLINE INTELLECTUAL PROPERTY DEVELOPMENT LIMITED, priority 2022, published 2025).
Counter-ions that a name gives are not always drawn.

biological target: human Nav1.8 (Homo sapiens (Human), UniProt Q9Y5Y9); assay: QPatch 48 HTX voltage-clamp electrophysiology, half inactivation state (V1/2) protocol, HEK293-Nav1.8 cells; format: cell-based; conditions: HEK293 cells expressing human Nav1.8, human Navβ1 and human TREK1, P2 current
Procedure, shortened: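 HEK293 cells co-expressing Navβ1 and TREK1 were voltage-clamped from −100 mV: a 20 ms step to 0 mV, 8 s inactivation at −46 mV, 20 ms at −100 mV, then a 20 ms P2 test step to 0 mV, repeated every 15 s. P2 current was normalized to vehicle and full block, corrected for run-down, and Hill-fitted (4–6 concentrations) for IC50.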

Sequence of human Nav1.8 (Q9Y5Y9 whole entry): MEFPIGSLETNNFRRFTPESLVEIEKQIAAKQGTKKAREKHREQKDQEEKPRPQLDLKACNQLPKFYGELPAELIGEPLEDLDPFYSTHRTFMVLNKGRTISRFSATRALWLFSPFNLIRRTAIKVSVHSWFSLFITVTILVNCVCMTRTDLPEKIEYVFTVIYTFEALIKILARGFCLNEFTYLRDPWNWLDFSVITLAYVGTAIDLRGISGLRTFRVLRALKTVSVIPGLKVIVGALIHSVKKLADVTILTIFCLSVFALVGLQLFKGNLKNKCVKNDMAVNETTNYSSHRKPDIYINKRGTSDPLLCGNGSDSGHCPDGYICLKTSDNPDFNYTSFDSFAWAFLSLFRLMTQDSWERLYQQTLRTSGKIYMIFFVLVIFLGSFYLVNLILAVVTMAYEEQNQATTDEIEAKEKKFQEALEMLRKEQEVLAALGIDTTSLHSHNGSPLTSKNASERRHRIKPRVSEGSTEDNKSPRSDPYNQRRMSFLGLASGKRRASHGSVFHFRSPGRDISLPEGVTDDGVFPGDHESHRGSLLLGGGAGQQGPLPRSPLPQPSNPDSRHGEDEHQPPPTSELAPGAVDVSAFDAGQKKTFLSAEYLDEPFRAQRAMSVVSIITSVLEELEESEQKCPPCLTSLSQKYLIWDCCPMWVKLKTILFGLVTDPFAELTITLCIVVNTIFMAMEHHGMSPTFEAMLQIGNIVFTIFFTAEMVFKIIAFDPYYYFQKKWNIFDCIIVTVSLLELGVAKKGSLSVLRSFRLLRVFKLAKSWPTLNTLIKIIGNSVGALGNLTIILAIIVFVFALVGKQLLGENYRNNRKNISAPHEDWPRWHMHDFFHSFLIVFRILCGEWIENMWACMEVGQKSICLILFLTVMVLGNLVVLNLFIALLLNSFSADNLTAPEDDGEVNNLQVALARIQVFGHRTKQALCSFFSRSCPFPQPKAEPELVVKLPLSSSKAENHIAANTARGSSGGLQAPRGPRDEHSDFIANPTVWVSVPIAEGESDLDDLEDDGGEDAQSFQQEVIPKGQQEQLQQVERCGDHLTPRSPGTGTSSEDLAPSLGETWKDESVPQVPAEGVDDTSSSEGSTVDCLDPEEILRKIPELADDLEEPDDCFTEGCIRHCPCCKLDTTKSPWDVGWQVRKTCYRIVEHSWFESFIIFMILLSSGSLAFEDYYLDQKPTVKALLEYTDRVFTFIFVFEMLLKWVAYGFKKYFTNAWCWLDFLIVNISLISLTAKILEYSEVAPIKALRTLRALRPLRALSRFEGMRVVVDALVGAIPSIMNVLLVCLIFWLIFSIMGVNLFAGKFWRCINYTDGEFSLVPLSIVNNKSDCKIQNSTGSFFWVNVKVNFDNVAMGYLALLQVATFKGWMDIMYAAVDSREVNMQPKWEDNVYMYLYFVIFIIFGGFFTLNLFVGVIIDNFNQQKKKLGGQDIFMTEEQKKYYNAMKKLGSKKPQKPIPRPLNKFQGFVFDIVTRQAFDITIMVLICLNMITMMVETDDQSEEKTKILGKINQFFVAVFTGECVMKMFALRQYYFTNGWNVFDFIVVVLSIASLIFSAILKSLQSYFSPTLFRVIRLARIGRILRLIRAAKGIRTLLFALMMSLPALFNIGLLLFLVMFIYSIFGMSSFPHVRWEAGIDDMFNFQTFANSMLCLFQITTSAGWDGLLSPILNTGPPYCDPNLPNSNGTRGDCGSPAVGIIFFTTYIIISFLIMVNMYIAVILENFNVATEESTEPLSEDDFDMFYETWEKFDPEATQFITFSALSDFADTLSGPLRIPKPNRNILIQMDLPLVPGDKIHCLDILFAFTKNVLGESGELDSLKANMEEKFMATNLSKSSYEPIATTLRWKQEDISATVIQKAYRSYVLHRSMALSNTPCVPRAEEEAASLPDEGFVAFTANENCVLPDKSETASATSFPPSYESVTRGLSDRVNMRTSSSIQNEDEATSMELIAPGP
Sequence of human Nav1.8 (Q07699 19-218 partner): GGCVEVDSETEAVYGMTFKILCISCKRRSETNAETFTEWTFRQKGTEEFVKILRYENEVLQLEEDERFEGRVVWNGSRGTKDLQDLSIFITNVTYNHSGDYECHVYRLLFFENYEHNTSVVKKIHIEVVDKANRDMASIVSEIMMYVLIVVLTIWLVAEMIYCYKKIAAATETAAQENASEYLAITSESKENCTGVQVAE

Row | Nav1.8, pIC50 | SMILES
1 | 7.6 | Cl.O=C1c2cc(Cl)c(F)cc2N2CN1c1ccc(=O)[nH]c1CCNCc1c2ccc(F)c1F [Example 69, 2-Chloro-3,8,9-trifluoro-10,11,12,13-tetrahydro-19H-5,18-methanodibenzo[c,f]pyrido[3,2-j][1,5,9]triazacyclotridecine-15,19(14H)-dione hydrochloride]
2 | 5.5 | O=C1c2cc(F)c(F)cc2N2CN1c1ccc(=O)[nH]c1CCNCc1c2ccc(F)c1O.O=CO [Example 84, 2,3,8-Trifluoro-9-hydroxy-10,11,12,13-tetrahydro-19H-5,18-methanodibenzo-[c,f]pyrido[3,2-j][1,5,9]triazacyclotridecine-15,19(14H)-dione, formic acid salt]
3 | 8.1 | Cl.O=C1c2cc(F)c(C(F)(F)F)cc2N2CN1c1ccc(=O)[nH]c1CNCCCc1c2ccc(F)c1F [Example 106, 2^6,3^3,3^4-Trifluoro-2^7-(trifluoromethyl)-1^1,1^2,2^1,2^2,2^3,2^4-hexahydro-7-aza-2(3,1)-quinazolina-1(5,6)-pyridina-3(1,2)-benzenacyclooctaphane-1^2,2^4-dione hydrochloride]
4 | 7.9 | Cl.O=C1c2cc(F)c(F)cc2N2CN1c1ccc(=O)[nH]c1CCNCc1c2ccc(OC(F)(F)F)c1F [Example 87, 2,3,9-Trifluoro-8-(trifluoromethoxy)-10,11,12,13-tetrahydro-19H-5,18-methanodibenzo[c,f]pyrido[3,2-j][1,5,9]triazacyclotridecine-15,19(14H)-dione hydrochloride]
5 | 7.1 | O=C1c2cc(F)c(C(F)(F)F)cc2N2CN1c1ccc(=O)[nH]c1CNCCc1cc(F)ccc12 [Example 102, 2,8-Difluoro-3-(trifluoromethyl)-10,11,12,13-tetrahydro-19H-5,18-methanodibenzo[b,l]pyrido[3,2-f][1,5,9]triazacyclotridecine-15,19(14H)-dione]
6 | 6.8 | N#Cc1c(F)ccc2c1CNCCc1[nH]c(=O)ccc1N1CN2c2cc(F)c(F)cc2C1=O [Example 83, 2,3,8-Trifluoro-15,19-dioxo-10,11,12,13,14,15-hexahydro-19H-5,18-methano-dibenzo[c,f]pyrido[3,2-j][1,5,9]triazacyclotridecine-9-carbonitrile]
7 | 6.4 | O=C1c2cc(C(F)(F)F)ccc2N2CN1c1ccc(=O)[nH]c1C/C=C\Cc1cc(F)ccc12 [Example 3, 8-Fluoro-2-(trifluoromethyl)-10,13-dihydro-19H-5,18-methanodibenzo[b,l]pyrido[3,2-f][1,5]diazacyclotridecine-15,19(14H)-dione]
8 | 7.5 | O=C1c2c(ccc(C(F)(F)F)c2F)N2CN1c1ccc(=O)[nH]c1NCCCc1cc(F)ccc12 [Example 33, 1,8-Difluoro-2-(trifluoromethyl)-10,11,12,13-tetrahydro-19H-5,18-methanodibenzo[f,i]pyrido[2,3,-b][1,4,8]triazacyclotridecine-15,19(14H)-dione]
9 | 6.0 | O=C1c2cc(C(F)(F)F)ccc2N2CN1c1ccc(=O)[nH]c1CCCc1cc(F)ccc12 [Example 2, 14-Fluoro-8-(trifluoromethyl)-17,18-dihydro-1H,6H-5,11-methanodibenzo[b,k]pyridino[3,2-f][1,5]diazacyclododecine-2,6(16H)-dione]
10 | 6.3 | O=C1c2ccc(C(F)(F)F)cc2N2CN1c1ccc(=O)[nH]c1C/C=C\Cc1cc(F)ccc12 [Example 5, 8-Fluoro-3-(trifluoromethyl)-10,13-dihydro-19H-5,18-methanodibenzo[b,l]pyrido[3,2f][1,5]diazacyclo tridecin-15,19(14H)-dione]
11 | 7.6 | O=C1c2cc(F)c(F)cc2N2CN1c1ccc(=O)[nH]c1NCCCc1c2ccc(F)c1F [Example 98, 2,3,8,9-Tetrafluoro-10,11,12,13-tetrahydro-19H-5,18-methanodibenzo[f,i]pyrido[2,3-b]-[1,4,8]triazacyclotridecine-15,19(14H)-dione, formic acid salt]
12 | 8.1 | O=C1c2cc(C(F)(F)F)ccc2N2CN1c1ccc(=O)[nH]c1CCCCCc1cc(F)ccc12 [Example 7, 3^4-Fluoro-2^6-(trifluoromethyl)-1^1,1^2,2^1,2^2,2^3,2^4-hexahydro-2(3,1)-quinazolina-1(5,6)-pyridina-3(1,2)-benzenacyclooctaphane-1^2,2^4-dione]
13 | 7.7 | Cl.O=C1c2cc(F)c(C(F)(F)F)cc2N2CN1c1ccc(=O)[nH]c1CCNCc1c(F)cccc12 [Example 80, 2,9-Difluoro-3-(trifluoromethyl)-10,11,12,13-tetrahydro-19H-5,18-methanodibenzo-[c,f]pyrido[3,2-j][1,5,9]triazacyclotridecine-15,19(14H)-dione hydrochloride]
14 | 7.7 | O=C1c2cc(C(F)(F)F)ccc2N2CN1c1ccc(=O)[nH]c1NCCCc1c2ccc(F)c1F [Example 37, 8,9-Difluoro-2-(trifluoromethyl)-10,11,12,13-tetrahydro-19H-5,18-methanodibenzo[f,i]dipyrido[2,3,-b][1,4,8]triazacyclotridecine-15,19(14H)-dione]
15 | 6.2 | O=C1c2cc(C(F)(F)F)ccc2N2CN1c1ccc(=O)[nH]c1CCCCNc1cc(F)ccc12 [Example 25, 3^4-Fluoro-2^6-(trifluoromethyl)-1^1,1^2,2^1,2^2,2^3,2^4-hexahydro-4-aza-2(3,1)-quinazolina-1(5,6)-pyridina-3(1,2)-benzenacyclooctaphan-1^2,2^4-dione]
16 | 7.7 | O=C1c2cc(C(F)(F)F)c(F)cc2N2CN1c1ccc(=O)[nH]c1NCCCc1cc(F)ccc12 [Example 90, 3,8-Difluoro-2-(trifluoromethyl)-10,11,12,13-tetrahydro-19H-5,18-methanodibenzo[f,i]-pyrido[2,3-b][1,4,8]triazacyclotridecine-15,19(14H)-dione]
17 | 7.8 | Cl.O=C1c2cc(Cl)c(C(F)(F)F)cc2N2CN1c1ccc(=O)[nH]c1CCNCc1cc(F)ccc12 [Example 59, 2-Chloro-8-fluoro-3-(trifluoromethyl)-10,11,12,13-tetrahydro-19H-5,18-methanodibenzo[c,f]pyrido[3,2-j][1,5,9]triazacyclotridecine-15,19(14H)-dione hydrochloride]
18 | 6.4 | Cl.O=C1c2cc(F)c(C(F)(F)F)cc2N2CN1c1ccc(=O)[nH]c1CCNCc1c2ccc(F)c1O [Example 85, 2,8-Difluoro-9-hydroxy-3-(trifluoromethyl)-10,11,12,13-tetrahydro-19H-5,18-methanodibenzo[c,f]pyrido[3,2-i][1,5,9]triazacyclotridecine-15,19(14H)-dione hydrochloride]
19 | 6.9 | O=C1c2cc(C(F)(F)F)ncc2N2CN1c1ccc(=O)[nH]c1NCCCc1cc(F)ccc12 [Example 35, 8-Fluoro-2-(trifluoromethyl)-10,11,12,13-tetrahydro-19H-5,18-methanodibenzo[i]dipyrido[2,3,-b:4′,3′-f][1,4,8]triazacyclotridecine-15,19(14H)-dione]

same assay, conditions: HEK293 cells expressing human Nav1.8, human Navβ1 and human TREK1, P2 current, read-out: Nav1.8, pIC50 (converted)

Row | IC50 [nM] | SMILES
20 | 1580 | CC1Cc2[nH]c(=O)ccc2N2CN(c3ccc(F)cc3CN1)c1cc(C(F)(F)F)c(F)cc1C2=O (single isomer, unassigned; isomer 1) [Example 124, 2,8-difluoro-12-methyl-3-(trifluoromethyl)-10,11,12,13-tetrahydro-19H-5,18-methanodibenzo[c,f]pyrido[3,2-j][1,5,9]triazacyclotridecine-15,19(14H)-dione, Isomer 1]
